ChEMBL document CHEMBL5321227, “Lysosome-targeting phenalenones as efficient type I/II photosensitizers for anticancer photodynamic therapy” (Eur J Med Chem, 2023)
Activity calls are given as the source filed them. The calls are words filed in the database; no cut-off is given here.

Assays:
[1] = Toxicity in BALB/c mouse xenografted with mouse 4T1 cells assessed as body weight change at 5 mg/kg,IT(Intratumoral) for 14 days followed by photoirradiation with 500 to 700nm light (0.5 W) for 6 hrs; type: organism-based; conditions: in vivo, other, 342 h, time 14.25 day
[2] = system: 4T1; assay: Anticancer activity against mouse 4T1 cells assessed as fold increase in cleaved caspase-3 protein expression at 1 uM preincubated for 2 hrs followed by photoirradiation with 500 to 700nm and 12 J/cm^2 LED light and measured after 24 hrs by Western blot analysis relative to control; type: functional; conditions: time 26 hrs
[3] = Induction of singlet oxygen production in ethanol assessed as singlet oxygen quantum yield at 410nm under photoirradiation with 550nm and 10 mW/cm^2 LED light for 10 to 80 secs by DPBF based microplate reader analysis; type: functional; conditions: time 10-80 sec
[4] = Toxicity in BALB/c mouse xenografted with mouse 4T1 cells assessed as tissue destruction with large spaces in lung at 5 mg/kg,IT(Intratumoral) for 14 days followed by photoirradiation with 500 to 700nm light (0.5 W) for 6 hrs by Hematoxylin and Eosin staining based microscopy; type: organism-based; conditions: in vivo, other, 342 h, time 14.25 day
[5] = Toxicity in BALB/c mouse xenografted with mouse 4T1 cells assessed as histopathological lesion in lung at 5 mg/kg,IT(Intratumoral) for 14 days by Hematoxylin and Eosin staining based microscopy; type: organism-based; conditions: in vivo, other, 336 h, time 14 day
[6] = system: MDA-MB-231; assay: Anticancer activity against human MDA-MB-231 cells assessed as reduction in cell viability at 0.01 to 10 uM incubated for 24 hrs by CCK-8 assay; type: functional, cell-based; conditions: dose 0.01-10 µM
[7] = Toxicity in BALB/c mouse xenografted with mouse 4T1 cells assessed as body weight change at 5 mg/kg,IT(Intratumoral) for 14 days; type: organism-based; conditions: in vivo, other, 336 h, time 14 day
[8] = Drug uptake in spleen of BALB/c mouse xenografted with mouse 4T1 cells at 5 mg/kg,IT(Intratumoral) and measured after 6 hrs by fluorescence imaging analysis; type: ADME, organism-based; conditions: in vivo, other
[9] = Toxicity in BALB/c mouse xenografted with mouse 4T1 cells assessed as histopathological lesion in kidney at 5 mg/kg,IT(Intratumoral) for 14 days by Hematoxylin and Eosin staining based microscopy; type: organism-based; conditions: in vivo, other, 336 h, time 14 day
[10] = Toxicity in BALB/c mouse xenografted with mouse 4T1 cells assessed as histopathological lesion in tumor at 5 mg/kg,IT(Intratumoral) for 14 days by Hematoxylin and Eosin staining based microscopy; type: organism-based; conditions: in vivo, other, 336 h, time 14 day
[11] = Drug uptake BALB/c mouse xenografted with mouse 4T1 cells assessed as increase in fluorescence signal in tumor at 5 mg/kg,IT(Intratumoral) and measured for 1 to 6 hrs by fluorescence imaging analysis; type: ADME, organism-based, Neoplasm; conditions: in vivo, other, time 1-6 hrs
[12] = Toxicity in BALB/c mouse xenografted with mouse 4T1 cells assessed as tissue destruction with large spaces in heart at 5 mg/kg,IT(Intratumoral) for 14 days followed by photoirradiation with 500 to 700nm light (0.5 W) for 6 hrs by Hematoxylin and Eosin staining based microscopy; type: organism-based; conditions: in vivo, other, 342 h, time 14.25 day
[13] = system: MDA-MB-231; assay: Anticancer activity against human MDA-MB-231 cells assessed as number of dead cells at 2.5 uM preincubated for 12 hrs followed by photoirradiation with 500 to 700nm and 12 J/cm^2 LED light for 10 mins by calcein-AM and propidium iodide staining based flow cytometry; type: functional, cell-based; conditions: time 12.2 hrs
[14] = system: 4T1; assay: Anticancer activity against mouse 4T1 cells assessed as reduction in cell viability preincubated for 2 hrs followed by photoirradiation with 500 to 700nm and 12 J/cm^2 LED light for 24 hrs by CCK-8 assay; type: functional, cell-based; conditions: 4T1, light or radiation study
[15] = Stability of compound in GSH at 10 uM incubated for 30 mins by fluorescence assay; type: physicochemical; conditions: 0.5 h
[16] = system: 4T1; assay: Anticancer activity against mouse 4T1 cells assessed as fold increase in gamma-H2A.X protein expression at 1 uM preincubated for 2 hrs followed by photoirradiation with 500 to 700nm and 12 J/cm^2 LED light and measured after 24 hrs by Western blot analysis relative to control; type: functional; conditions: time 26 hrs
[17] = Drug uptake BALB/c mouse xenografted with mouse 4T1 cells assessed as maximum fluorescence intensity in tumor at 5 mg/kg,IT(Intratumoral) and measured at 6 hrs by fluorescence imaging analysis; type: ADME, organism-based, Neoplasm; conditions: in vivo, other
[18] = system: MDA-MB-231; assay: Anticancer activity against human MDA-MB-231 cells assessed as reduction in cell viability preincubated for 2 hrs followed by photoirradiation with 500 to 700nm and 12 J/cm^2 LED light for 24 hrs by CCK-8 assay; type: functional, cell-based; conditions: MDA-MB-231, light or radiation study
[19] = Drug metabolism in human MDA-MB-231 cells assessed as increase in carboxylesterase mediated SR release at 5 uM incubated for 2 hrs by confocal laser scanning microscopy; type: ADME, cell-based; conditions: mda-mb-231, 2 h
[20] = Drug metabolism in carboxylesterase (unknown origin) assessed as formation of active photosensitizer 6-amino-5-iodo-1H-phenalen-1-one by measuring increase in fluorescence at 610nM at 10 uM under by fluorescence assay; type: ADME; conditions: human
[21] = Drug uptake in kidney of BALB/c mouse xenografted with mouse 4T1 cells at 5 mg/kg,IT(Intratumoral) and measured after 6 hrs by fluorescence imaging analysis; type: ADME, organism-based; conditions: in vivo, other
[22] = Stability of compound in H2O2 at 10 uM incubated for 30 mins by fluorescence assay; type: physicochemical; conditions: 0.5 h
[23] = Drug uptake in heart of BALB/c mouse xenografted with mouse 4T1 cells at 5 mg/kg,IT(Intratumoral) and measured after 6 hrs by fluorescence imaging analysis; type: ADME, organism-based; conditions: in vivo, other
[24] = Toxicity in BALB/c mouse xenografted with mouse 4T1 cells assessed as histopathological lesion in liver at 5 mg/kg,IT(Intratumoral) for 14 days by Hematoxylin and Eosin staining based microscopy; type: organism-based; conditions: in vivo, other, 336 h, time 14 day
[25] = Stability of compound in various pH; type: physicochemical
[26] = Toxicity in BALB/c mouse xenografted with mouse 4T1 cells assessed as tissue destruction with large spaces in kidney at 5 mg/kg,IT(Intratumoral) for 14 days followed by photoirradiation with 500 to 700nm light (0.5 W) for 6 hrs by Hematoxylin and Eosin staining based microscopy; type: organism-based; conditions: in vivo, other, 342 h, time 14.25 day
[27] = system: 4T1; assay: Antitumor activity against mouse 4T1 cells xenografted in BALB/c mouse assessed as tumor growth inhibition at 5 mg/kg,IT(Intratumoral) for 14 days relative to control; type: functional, organism-based; conditions: time 14.0 day
[28] = Drug metabolism in mouse 4T1 cells assessed as increase in carboxylesterase mediated 6-amino-5-iodo-1H-phenalen-1-one release at 5 uM incubated for 2 hrs by confocal laser scanning microscopy; type: ADME, cell-based; conditions: 4t1, 2 h
[29] = Drug uptake in tumor BALB/c mouse xenografted with mouse 4T1 cells at 5 mg/kg,IT(Intratumoral) and measured after 6 hrs by fluorescence imaging analysis; type: ADME, organism-based, Neoplasm; conditions: in vivo, other
[30] = Stability of compound in gamma-glutamyl transpeptidase at 10 uM incubated for 30 mins by fluorescence assay; type: physicochemical; conditions: 0.5 h
[31] = Photostability of compound in EtOH assessed as compound decomposition at 50 uM incubated for 5 to 20 mins under photoirradiation with 550nm and 10 J/cm^2 LED light by UV-visible spectroscopic analysis; type: physicochemical; conditions: time 5-20 min
[32] = Drug uptake in tumor of BALB/c mouse xenografted with mouse 4T1 cells at 5 mg/kg,IT(Intratumoral) and measured for 6 to 72 hrs by fluorescence imaging analysis; type: ADME, organism-based, Neoplasm; conditions: in vivo, other, time 6-72 hrs

Drug uptake [8]: Not Active | Drug uptake [11]: Active | IC50 [14]: 1310 nM | Stability [15]: Stable | Drug uptake [17]: Active | IC50 [18]: 1590 nM | Drug metabolism [19]: Metabolite_Detected | Drug uptake [21]: Active | Stability [22]: Stable | Drug uptake [23]: Not Active | Stability [25]: Stable | Drug metabolism [28]: Metabolite_Detected | Drug uptake [29]: Active | Stability [30]: Stable | Stability [31]: Stable | Drug uptake [32]: Not Active
SMILES: O=C(CCl)Nc1c(I)cc2c3c(cccc13)C(=O)C=C2
Activity [1]: Toxic | fold change (FC) [2]: 3.45 | Activity [3]: 0.09 | Activity [4]: Toxic | Activity [5]: Non-Toxic | Activity [6]: Active | Activity [7]: Toxic | Activity [9]: Non-Toxic | Activity [10]: Non-Toxic | Activity [12]: Toxic | Activity [13]: Active | fold change (FC) [16]: 2.12 | Drug metabolism [20]: Metabolite_Detected | Activity [24]: Non-Toxic | Activity [26]: Toxic | Activity [27]: Active
